Consider 28 molecules from US8664220B2, “Polycyclic compounds as lysophosphatidic acid receptor antagonists” (Amira Pharmaceuticals, Inc., priority 2009, dated 2014).

In the experiment the target is T1, human LPA1 (Homo sapiens, UniProt Q92633).
T1 construct: the full-length cDNA for human LPA1 was obtained by PCR of the reverse transcription reaction; expressed in transfected cells
Put plainly: LPA1 calcium flux assay. Format: cell-based. The following applies: human LPA1 expressing CHO cells, stimulated with 10 nM LPA; read-out: HLPA1 Ca Flux IC50. An outline of the steps:
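CHO cells stably expressing human LPA1, serum-starved overnight and loaded with Calcium 4 dye in HBSS/20 mM Hepes/0.3% fatty-acid-free HSA, 1 h at 37 °C. Compounds pre-incubated 30 min at room temperature, then 10 nM LPA added; intracellular Ca2+ flux measured and IC50 from titration curves.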

T1 sequence (Q92633 whole entry): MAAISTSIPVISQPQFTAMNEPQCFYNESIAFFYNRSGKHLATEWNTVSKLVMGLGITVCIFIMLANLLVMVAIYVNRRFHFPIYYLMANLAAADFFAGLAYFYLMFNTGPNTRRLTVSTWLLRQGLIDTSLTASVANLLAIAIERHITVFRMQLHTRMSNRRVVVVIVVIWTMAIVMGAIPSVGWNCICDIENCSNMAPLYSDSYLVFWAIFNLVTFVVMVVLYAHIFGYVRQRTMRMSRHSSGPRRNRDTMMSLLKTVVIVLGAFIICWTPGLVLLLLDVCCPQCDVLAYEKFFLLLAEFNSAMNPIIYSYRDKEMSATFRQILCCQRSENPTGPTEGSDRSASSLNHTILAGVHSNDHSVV

With `Cc1noc(-c2ccc(-c3ccc(CC(=O)O)cc3)cc2)c1C(O)c1cn(Cc2cccc(C(F)(F)F)c2)nn1` (stereo not shown) [Compound 1-51, [4′-(4-{Hydroxy-[1-(3-trifluoromethyl-benzyl)-1H-[1,2,3]triazol-4-yl]-methyl}-3-methyl-isoxazol-5-yl)-biphenyl-4-yl]acetic acid], the IC50 was more than 50000 nM.

Regarding `Cc1noc(-c2ccc(-c3ccc(C4(C(=O)O)CC4)cc3)cc2)c1Nc1ccnc(-c2ccccc2)c1` [Compound 1-111, 1-{4′-[3-Methyl-4-(2-phenyl-pyridin-4-ylamino)-isoxazol-5-yl]-biphenyl-4-yl}-cyclopropanecarboxylic acid], the IC50 lay in the range of 300 to 1000 nM.

On to `Cc1noc(-c2ccc(-c3ccc(C4(C(=O)O)CC4)cc3)cc2)c1Nc1cccc(OC2CCC2)n1` [Compound 1-139, 1-{4′-[4-(6-Cyclobutoxy-pyridin-2-ylamino)-3-methyl-isoxazol-5-yl]-biphenyl-4-yl}-cyclopropanecarboxylic acid], for which the IC50 was less than 300 nM.

Consider `Cc1noc(-c2ccc(-c3ccc(C4(CC(=O)O)CC4)cc3)cc2)c1NC(C)c1cc(-c2ccccc2)no1` (stereo not shown) [Compound 1-42, [1-(4′-{3-Methyl-4-[1-(3-phenyl-isoxazol-5-yl)-ethylamino]-isoxazol-5-yl}-biphenyl-4-yl)-cyclopropyl]-acetic acid], for which the IC50 was less than 300 nM. The figure for `COc1ccccc1-c1cccc(Nc2c(C)noc2-c2ccc(-c3ccc(C4(C(=O)O)CC4)cc3)cc2)n1` [Compound 1-94, 1-(4′-{4-[6-(2-Methoxy-phenyl)-pyridin-2-ylamino]-3-methyl-isoxazol-5-yl}-biphenyl-4-yl)-cyclopropanecarboxylic acid] is less than 300 nM; for `Cc1noc(-c2ccc(-c3ccc(C4(C(=O)O)CC4)cc3)cc2)c1Nc1cccc(-c2c(Cl)cccc2Cl)n1` [Compound 1-150, 1-(4′-{4-[6-(2,6-Dichloro-phenyl)-pyridin-2-ylamino]-3-methyl-isoxazol-5-yl}-biphenyl-4-yl)-cyclopropanecarboxylic acid] it is less than 300 nM; for `Cc1noc(-c2ccc(-c3ccc(C4(C(=O)O)CC4)cc3)cc2)c1Nc1cncc(-c2cccc(Cl)c2)c1` [Compound 1-160, 1-(4′-{4-[5-(3-Chloro-phenyl)-pyridin-3-ylamino]-3-methyl-isoxazol-5-yl}-biphenyl-4-yl)-cyclopropanecarboxylic acid] it is less than 300 nM. The figure for `Cc1noc(-c2ccc(-c3ccc(C4(C(=O)NS(C)(=O)=O)CC4)cc3)cc2)c1Nc1nnc(-c2ccccc2)o1` [Compound 3-4, N-(1-{4′-[3-Methyl-4-(5-phenyl-[1,3,4]oxadiazol-2-ylamino)-isoxazol-5-yl]-biphenyl-4-yl}-cyclopropanecarbonyl)-methanesulfonamide] is less than 300 nM; for `Cc1noc(-c2ccc(-c3ccc(C4(C(=O)O)CC4)cc3)cc2)c1Cn1ccc(-c2ccccc2)n1` [Compound 1-5, 1-{4′-[3-Methyl-4-(3-phenyl-pyrazol-1-ylmethyl)-isoxazol-5-yl]-biphenyl-4-yl}-cyclopropanecarboxylic acid] it is less than 300 nM. For `CCOc1ccc(-c2cccc(Nc3c(C)noc3-c3ccc(-c4ccc(C5(C(=O)O)CC5)cc4)cc3)n2)cn1` [Compound 1-87, 1-{4′-[4-(6′-Ethoxy-[2,3]bipyridinyl-6-ylamino)-3-methyl-isoxazol-5-yl]-biphenyl-4-yl}-cyclopropanecarboxylic acid], the IC50 lay within 300 to 1000 nM. Consider `Cc1noc(-c2ccc(-c3ccc(C4(C(=O)O)CC4)cc3)cc2)c1Cn1cc(Cc2ccccc2)nn1` [Compound 1-9, 1-{4′-[4-(4-Benzyl-[1,2,3]triazol-1-ylmethyl)-3-methyl-isoxazol-5-yl]-biphenyl-4-yl}-cyclopropanecarboxylic acid], for which the IC50 was less than 300 nM.

Turning to `Cc1noc(-c2ccc(-c3ccc(C4(C(=O)O)CC4)cc3)cc2)c1Nc1cccc(-c2cccc(F)c2Cl)n1` [Compound 1-153, 1-(4′-{4-[6-(2-Chloro-3-fluoro-phenyl)-pyridin-2-ylamino]-3-methyl-isoxazol-5-yl}-biphenyl-4-yl)-cyclopropanecarboxylic acid], the IC50 was less than 300 nM. On to `Cc1noc(-c2ccc(-c3ccc(C4(C(=O)O)CC4)cc3)cc2)c1NC(C)[C@@H]1C[C@H]1c1ccccc1` (relative stereo) [Compound 1-66, 1-(4′-{3-Methyl-4-[trans-1-(2-phenyl-cyclopropyl)-ethylamino]-isoxazol-5-yl}-biphenyl-4-yl)-cyclopropanecarboxylic acid], for which the IC50 is less than 300 nM.

Regarding `Cc1noc(-c2ccc(-c3ccc(C4(C(=O)O)CC4)cc3)cc2)c1Nc1cccc(S(=O)(=O)c2ccccc2)n1` [Compound 1-128, 1-{4′-[4-(6-Benzenesulfonyl-pyridin-2-ylamino)-3-methyl-isoxazol-5-yl]-biphenyl-4-yl}-cyclopropanecarboxylic acid], the IC50 was less than 300 nM.

On to `COc1ccc(-c2cccc(Nc3c(C)noc3-c3ccc(-c4ccc(C5(C(=O)O)CC5)cc4)cc3)n2)cc1` [Compound 1-92, 1-(4′-{4-[6-(4-Methoxy-phenyl)-pyridin-2-ylamino]-3-methyl-isoxazol-5-yl}-biphenyl-4-yl)-cyclopropanecarboxylic acid], for which the IC50 is less than 300 nM. Regarding `Cc1noc(-c2ccc(-c3ccc(C(C)(C)C(=O)O)cc3)cc2)c1Nc1cccc(-c2ccccc2)n1` [Compound 1-133, 2-Methyl-2-{4′-[3-methyl-4-(6-phenyl-pyridin-2-ylamino)-isoxazol-5-yl]-biphenyl-4-yl}-propionic acid], the IC50 was less than 300 nM. The figure for `Cc1noc(-c2ccc(-c3ccc(C4(C(=O)O)CC4)cc3)cc2)c1C(NS(C)(=O)=O)c1cn(Cc2ccccc2)nn1` (stereo not shown) [Compound 1-47, 1-(4′-{4-[(1-Benzyl-1H-[1,2,3]triazol-4-yl)-methanesulfonylamino-methyl]-3-methyl-isoxazol-5-yl}-biphenyl-4-yl)-cyclopropanecarboxylic acid] is more than 50000 nM. In the case of `Cc1noc(-c2ccc(-c3ccc(C4(C(=O)O)CC4)cc3)cc2)c1Nc1cccc(-c2cccc(C(F)(F)F)c2)n1` [Compound 1-77, 1-(4′-{3-Methyl-4-[6-(3-trifluoromethyl-phenyl)-pyridin-2-ylamino]-isoxazol-5-yl}-biphenyl-4-yl)-cyclopropanecarboxylic acid], the concentration for half-maximal inhibition (IC50) is less than 300 nM. The figure for `Cc1noc(-c2ccc(-c3ccc(CCC(=O)O)cc3)cc2)c1Nc1cccc(-c2ccccc2)n1` [Compound 1-132, 3-{4′-[3-Methyl-4-(6-phenyl-pyridin-2-ylamino)-isoxazol-5-yl]-biphenyl-4-yl}-propionic acid] is less than 300 nM. The figure for `Cc1noc(-c2ccc(-c3ccc(C4(C(=O)O)CC4)cc3)cc2)c1C(O)c1nnc(Cc2ccccc2)o1` (single isomer, unassigned) [Compound 1-34, 1-(4′-{4-[(5-Benzyl-[1,3,4]oxadiazol-2-yl)-hydroxy-methyl]-3-methyl-isoxazol-5-yl}-biphenyl-4-yl)-cyclopropanecarboxylic acid] is less than 300 nM; for `Cc1noc(-c2ccc(-c3ccc(C4(C(=O)O)CC4)cc3)cc2)c1Nc1cccc(C(=O)N2CCCC2)n1` [Compound 1-136, 1-(4′-{3-Methyl-4-[6-(pyrrolidine-1-carbonyl)-pyridin-2-ylamino]-isoxazol-5-yl}-biphenyl-4-yl)-cyclopropanecarboxylic acid] it is less than 300 nM; for `Cc1noc(-c2ccc(-c3ccc(C4(C(=O)O)CC4)cc3)cc2)c1Nc1ccnc(-c2cccc(F)c2)c1` [Compound 1-112, 1-(4′-{4-[2-(3-Fluoro-phenyl)-pyridin-4-ylamino]-3-methyl-isoxazol-5-yl}-biphenyl-4-yl)-cyclopropanecarboxylic acid] it is 1000 to 50000 nM. Next, `Cc1noc(-c2ccc(-c3ccc(C4(C(=O)O)CC4)cc3)cc2)c1Nc1nnc(-c2ccccc2)o1` [Compound 1-80, 1-{4′-[3-Methyl-4-(5-phenyl-[1,3,4]oxadiazol-2-ylamino)-isoxazol-5-yl]-biphenyl-4-yl}-cyclopropanecarboxylic acid]: less than 300 nM; `Cc1noc(-c2ccc(-c3ccc(C4(C(=O)O)CC4)cc3)cc2)c1C(O)c1cn(Cc2ccccc2C(F)(F)F)nn1` (stereo not shown) [Compound 1-56, 1-[4′-(4-{Hydroxy-[1-(2-trifluoromethyl-benzyl)-1H-[1,2,3]triazol-4-yl]-methyl}-3-methyl-isoxazol-5-yl)-biphenyl-4-yl]-cyclopropanecarboxylic acid]: 1000 to 50000 nM. Turning to `Cc1noc(-c2ccc(-c3ccc(C4(C(=O)O)CC4)cc3)cc2)c1C(O)c1nnc(-c2ccccc2)o1` (stereo not shown) [Compound 1-38, 1-(4′-{4-[Hydroxy-(5-phenyl-[1,3,4]oxadiazol-2-yl)-methyl]-3-methyl-isoxazol-5-yl}-biphenyl-4-yl)-cyclopropanecarboxylic acid], the IC50 was less than 300 nM. The figure for `Cc1noc(-c2ccc(-c3ccc(C4(C(=O)O)CC4)cc3)cc2)c1C(O)c1cccc(-c2ccccc2)c1` (stereo not shown) [Compound 1-53, 1-{4′-[4-(Biphenyl-3-yl-hydroxy-methyl)-3-methyl-isoxazol-5-yl]-biphenyl-4-yl}-cyclopropanecarboxylic acid] is less than 300 nM.

For the molecule `Cc1noc(-c2ccc(-c3ccc(C4(C(=O)O)CC4)cc3)cc2)c1C(O)c1cn(Cc2c(F)cccc2Cl)nn1` (stereo not shown) [Compound 1-71, 1-[4′-(4-{[1-(2-Chloro-6-fluoro-benzyl)-1H-[1,2,3]triazol-4-yl]-hydroxy-methyl}-3-methyl-isoxazol-5-yl)-biphenyl-4-yl]-cyclopropanecarboxylic acid], the IC50 is less than 300 nM. Next, `Cc1noc(-c2ccc(-c3ccc(C4(C(=O)O)CC4)cc3)cc2)c1[C@@H](O)c1cn(Cc2ccccc2Cl)nn1` [Compound 1-63, 1-[4′-(4-{(R)-[1-(2-Chloro-benzyl)-1H-[1,2,3]triazol-4-yl]-hydroxy-methyl}-3-methyl-isoxazol-5-yl)-biphenyl-4-yl]-cyclopropanecarboxylic acid]: less than 300 nM.
